In brackets after ≈: the same amount, converted by molar mass.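 Assay format: 96-well plates, 48-hour exposure. GI50: concentration for 50% inhibition of growth. TGI: concentration producing complete growth inhibition.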

Test systems include A549 NSCLC; HCT-15 colon; KM12 colon; MALME-3M melanoma; NCI-H23 lung; OVCAR-5 ovarian; SK-MEL-2 melanoma; SK-MEL-28 melanoma; SK-MEL-5 melanoma; SNB-19 CNS.
Assay in all cases: NCI tumour cell line growth inhibition, 48 h

With `CC(C)c1oc(=O)cc2c1C(O)C1OC(=O)C3(C)C(O)C4OC4C2(C)C13` (stereo not given), the TGI with A549 NSCLC came out at 16.5 µM; with HCT-15 colon, 41.6 µM; with KM12 colon it was 24.9 µM; in the assay on MALME-3M melanoma, 10 µM; with NCI-H23 lung, 7.63 µM; in the assay with OVCAR-5 ovarian, 27.2 µM. In addition, the TGI with SK-MEL-2 melanoma stood at 7.71 µM; in the assay on SK-MEL-28 melanoma it was 12.7 µM; in the assay with SK-MEL-5 melanoma, 1.77 µM; in the assay on SNB-19 CNS it was 4.41 µM.
As for `Cc1nc2nc(C)n(CCN3CCOCC3)c(=O)c2c(-c2cccc([N+](=O)[O-])c2)c1C(=O)CCCCCCCCCCN1CCC(c2ccccc2)(c2ccccc2)CC1`, the GI50 is 2.38 µg/mL (≈ 2.93 µM) in the assay on A549 NSCLC; 1.32 µg/mL (≈ 1.62 µM) in the assay with HCT-15 colon; 2.43 µg/mL (≈ 2.99 µM) with KM12 colon; 2.24 µg/mL (≈ 2.75 µM) in the assay with MALME-3M melanoma; 1.81 µg/mL (≈ 2.22 µM) in the assay on NCI-H23 lung; 2.07 µg/mL (≈ 2.55 µM) with OVCAR-5 ovarian. Moreover, the GI50 with SK-MEL-2 melanoma was 2.55 µg/mL (≈ 3.14 µM); with SK-MEL-28 melanoma, 2.26 µg/mL (≈ 2.78 µM); in the assay with SK-MEL-5 melanoma, 2.3 µg/mL (≈ 2.83 µM); with SNB-19 CNS it was 2.28 µg/mL (≈ 2.8 µM). In addition, the TGI worked out at 5.24 µg/mL in the assay with A549 NSCLC; 3.17 µg/mL in the assay on HCT-15 colon; 4.46 µg/mL in the assay with KM12 colon; 4.22 µg/mL in the assay with MALME-3M melanoma; 3.71 µg/mL in the assay with NCI-H23 lung; 4.03 µg/mL in the assay on OVCAR-5 ovarian. Besides, the TGI is 4.76 µg/mL in the assay on SK-MEL-2 melanoma, 4.34 µg/mL in the assay with SK-MEL-28 melanoma, 4.3 µg/mL with SK-MEL-5 melanoma and 4.3 µg/mL with SNB-19 CNS.
For the compound `O=C=C=P(c1ccccc1)(c1ccccc1)c1ccccc1`, the TGI in the assay with A549 NSCLC is above 100 µM; with HCT-15 colon, above 100 µM; with KM12 colon it was above 100 µM; in the assay on MALME-3M melanoma, above 100 µM; in the assay on NCI-H23 lung it was above 100 µM; in the assay with OVCAR-5 ovarian, 92.8 µM. Besides, the TGI was above 100 µM with SK-MEL-2 melanoma, above 100 µM in the assay on SK-MEL-28 melanoma, 46.2 µM in the assay with SK-MEL-5 melanoma and above 100 µM in the assay with SNB-19 CNS.

For the origin of these results see PubChem BioAssay (NCI).
